Converted amounts (≈) assume the structure as drawn. The source made the active and inactive calls. The calls are words filed in the database; no cut-off is given here.

This is an account of results in ChEMBL document CHEMBL4346729, “The discovery of novel 3-aryl-indazole derivatives as peripherally restricted pan-Trk inhibitors for the treatment of pain” (Bioorg Med Chem Lett, 2019).

Series [1] in a line: Intrinsic clearance in human liver microsomes. Format: ADME, Microsome. Particulars: read-out: CLH.
A short description of series [2]: Apparent permeability from apical to basolateral side in MDCK cells at 50 umol/L at pH 7.4 incubated for 30 mins by LC-MS/MS analysis. Format: ADME, cell-based, Canis lupus familiaris. To be noted: dog.
Series [3] is described as follows: Solubility of test compound. In kind it is physicochemical.
Series [4] is described as follows: Apparent permeability from apical to basolateral side in MDCK cells at 50 umol/L at pH 6.5 incubated for 30 mins by LC-MS/MS analysis. To be noted: dog. Format: ADME, cell-based, Canis lupus familiaris.
Series [5] concerns Rattus norvegicus. The series can be described thus: Antinociceptive activity in CFA induced thermal hypersensitivity Sprague-Dawley rat model assessed as increase in paw withdrawal latency at 100 mg/kg, po after 1 hr. In kind it is functional, organism-based.

Turning to `Cn1ccc(-c2n[nH]c3ccc(NCc4cc(F)ccc4S(C)(=O)=O)cc23)n1`, the CLint scaled in series [1] worked out at 137 mL/min/kg. The Papp A→B at 0.5 h, 50 µM in series [2] worked out at 34 ×10⁻⁶ cm/s. In series [3], this compound had a solubility of 80.1 µM (≈ 32 µg/mL).
Regarding `CS(=O)(=O)c1ccccc1CNc1ccc2[nH]nc(-c3ccc(N4CCNCC4)nc3)c2c1`, the CLint scaled in series [1] was determined as 74 mL/min/kg. The Papp A→B at 0.5 h, 50 µM was 12.5 ×10⁻⁶ cm/s in series [2] and 0.4 ×10⁻⁶ cm/s in series [4].
As for `CS(=O)(=O)Nc1ccccc1CNc1ccc2[nH]nc(-c3ccc(N4CCNCC4)nc3)c2c1`, the CLint scaled in series [1] lay within 69.5 to 70 mL/min/kg. The Papp A→B at 0.5 h, 50 µM in series [2] turned out to be 1.2 ×10⁻⁶ cm/s.
As for `COc1ccc(-c2n[nH]c3ccc(NCc4ccccc4NS(C)(=O)=O)cc23)cn1`, the CLint scaled in series [1] turned out to be 359 mL/min/kg.
`CN(Cc1ccccc1)c1ccc2[nH]nc(-c3ccc(N4CCNCC4)nc3)c2c1`: the CLint scaled in series [1] stood at 417 mL/min/kg. In addition, the Papp A→B at 0.5 h, 50 µM in series [2] stood at 7.3 ×10⁻⁶ cm/s.
`c1ccc(COc2ccc3[nH]nc(-c4ccc(N5CCNCC5)nc4)c3c2)cc1`: in series [1], the CLint scaled was determined as 694 mL/min/kg. In addition, the Papp A→B at 0.5 h, 50 µM in series [2] amounted to 9.6 ×10⁻⁶ cm/s.
Consider `c1ccc(CCc2ccc3[nH]nc(-c4ccc(N5CCNCC5)nc4)c3c2)cc1`, for which the CLint scaled in series [1] was 2730 mL/min/kg. The Papp A→B at 0.5 h, 50 µM in series [2] was determined as 3.1 ×10⁻⁶ cm/s.
`CS(=O)(=O)c1ccc(F)cc1CNc1ccc2[nH]nc(-c3ccccn3)c2c1`: in series [1], the CLint scaled came to 443 mL/min/kg. Further, the Papp A→B at 0.5 h, 50 µM in series [2] came to 73.2 ×10⁻⁶ cm/s. The compound further registered a solubility in series [3] of 15.2 µM (≈ 6.03 µg/mL).
With `CS(=O)(=O)Nc1ccccc1CNc1ccc2[nH]nc(-c3ccc(OC4CCNCC4)nc3)c2c1`, the CLint scaled in series [1] was 323 mL/min/kg. Further, in series [2], the Papp A→B at 0.5 h, 50 µM is 0.3 ×10⁻⁶ cm/s.
As for `CS(=O)(=O)Nc1ccccc1CNc1ccc2[nH]nc(-c3ccc(NC4CCNCC4)nc3)c2c1`, in series [1], the CLint scaled was 184 mL/min/kg. For the same compound, the Papp A→B at 0.5 h, 50 µM in series [2] is 0.3 ×10⁻⁶ cm/s.
`CC(C)Cc1ccc(C(C)C(=O)O)cc1` (stereo unspecified): the result in series [5] was Active.
For `CS(=O)(=O)c1ccc(F)cc1CNc1ccc2[nH]nc(-c3ccc(N4CCNCC4)nc3)c2c1`, the CLint scaled in series [1] was 176 to 178 mL/min/kg. The Papp A→B at 0.5 h, 50 µM in series [2] was 0.3 to 0.4 ×10⁻⁶ cm/s; in series [4], 0.3 ×10⁻⁶ cm/s. In series [3], the concentration in solution (solubility) was 38.7 µM (≈ 18.6 µg/mL).
With `COc1cncc(-c2n[nH]c3ccc(NCc4ccccc4NS(C)(=O)=O)cc23)c1`, the CLint scaled in series [1] turned out to be 217 mL/min/kg.
In the case of `CC(C)(Nc1ccc2[nH]nc(-c3ccc(N4CCNCC4)nc3)c2c1)c1ccccc1`, the CLint scaled in series [1] amounted to 1740 mL/min/kg. Further, in series [2], the Papp A→B at 0.5 h, 50 µM amounted to 11 ×10⁻⁶ cm/s.
For `CS(=O)(=O)c1ccc(F)cc1CNc1ccc2[nH]nc(-c3cccnc3)c2c1`, the CLint scaled in series [1] came out at 793 mL/min/kg. Further, the Papp A→B at 0.5 h, 50 µM in series [2] is 61.5 ×10⁻⁶ cm/s. This compound also came in with a solubility in series [3] of 23 µM (≈ 9.12 µg/mL).
Take `c1ccc(CNc2ccc3[nH]nc(-c4ccc(N5CCNCC5)nc4)c3c2)cc1`: in series [1], the CLint scaled was 12 mL/min/kg. The Papp A→B at 0.5 h, 50 µM in series [2] turned out to be 13 ×10⁻⁶ cm/s.
`COc1cccc(-c2n[nH]c3ccc(NCc4ccccc4NS(C)(=O)=O)cc23)n1`: the CLint scaled in series [1] was found to be 833 mL/min/kg.
